For this experiment, the target named is T1, APOL1 (Homo sapiens, UniProt O14791).
T1 sequence (O14791 1-398 S342G/I384M): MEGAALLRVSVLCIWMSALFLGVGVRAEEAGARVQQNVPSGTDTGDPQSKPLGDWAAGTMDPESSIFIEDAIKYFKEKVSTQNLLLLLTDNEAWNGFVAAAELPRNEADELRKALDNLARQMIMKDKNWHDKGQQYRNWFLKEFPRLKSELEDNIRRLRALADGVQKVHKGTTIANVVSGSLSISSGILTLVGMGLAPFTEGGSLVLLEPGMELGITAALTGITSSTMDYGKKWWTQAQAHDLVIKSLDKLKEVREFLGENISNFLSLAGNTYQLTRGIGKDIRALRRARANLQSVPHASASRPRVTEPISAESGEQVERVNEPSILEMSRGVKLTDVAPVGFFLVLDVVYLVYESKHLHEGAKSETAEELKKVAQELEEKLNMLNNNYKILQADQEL
Kind of experiment: MultiTox-Fluor Multiplex Cytotoxicity Assay in tet-inducible APOL1 T-REx-HEK293 cells. The format is cell-based. The conditions noted are these: tet-inducible transgenic APOL1 T-REx-HEK293 cell lines, 50 ng/mL tet, 24 hours, ratio of dead to live cells; read-out: IP50 (nM) (i.e., IC50 for cell proliferation). Here is the method: The MultiTox-Fluor Multiplex Cytotoxicity Assay is a single-reagent-addition, homogeneous, fluorescence assay that measures the number of live and dead cells simultaneously in culture wells. The assay measures cell viability and cytotoxicity by detecting two distinct protease activities. The live-cell protease activity is restricted to intact viable cells and is measured using a fluorogenic, cell-permeant peptide glycyl-phenylalanylamino fluorocoumarin (GF-AFC) substrate. The substrate enters intact cells, where it is cleaved to generate a fluorescent signal proportional to the number of living cells. […] A second, cell-impermeant, fluorogenic peptide substrate (bis-AAF-R110 Substrate) is used to measure dead-cell protease that has been released from cells that have lost membrane integrity. A ratio of dead to live cells is used to normalize data.
Briefly, the tet-inducible transgenic APOL1 T-REx-HEK293 cell lines were incubated with 50 ng/mL tet to induce APOL1 in the presence of 3-(2-(4-fluorophenyl)-1H-indol-3-yl)-N-((3S,4R)-4-hydroxy-2-oxopyrrolidin-3-yl)propenamide at 10.03, 3.24, 1.13, 0.356, 0.129, 0.042, 0.129, 0.0045, 0.0015, 0.0005 μM in duplicate for 24 hours in a humidified 37° C. incubator. The MultiTox reagent was added to each well and placed back in the incubator for an additional 30 minutes. The plate was read on the EnVision plate reader. A ratio of dead to live cells was used to normalize, and data was imported, analyzed, and fit using Genedata Screener (Basel, Switzerland) software. Data was normalized using percent of control, no tet (100% viability), and 50 ng/mL tet treated (0% viability),and fit using Smart Fit. The reagents, methods, and complete protocol for the MultiTox assay are described below.
Human embryonic kidney (HEK293) cell lines containing a tet-inducible expression system (T-REx™; Invitrogen, Carlsbad, CA) and Adeno-associated virus site 1 pAAVS1-Puro-APOL1 G0 or pAAVS1-Puro-APOL1 G1 or pAAVS1-Puro-APOL1 G2 Clones G0 DC2.13, Gi DC3.25, and G2 DC4.44 were grown in a T-225 flask at ˜90% confluency in cell growth media (DMEM, 10% Tet-free FBS, 2 mM L-glutamine, 100 Units/mL penicillin-streptomycin, 5 μg/mL blasticidin S HCl, 1 μg/mL puromycin dihydrochloride). Cells were washed with DPBS and then trypsinized to dissociate from the flask. Media was used to quench the trypsin, cells were then pelleted at 200 g and resuspended in fresh cell assay media (DMEM, 2% Tet-free FBS, 2 mM L-glutamine, 100 Units/mL penicillin-streptomycin). Cells were counted and diluted to 1.17×10^6 cells/mL. 20 μL of cells (23,400/well) were dispensed in every well of a 384-well Poly-D-Lysine coated plate using the Multidrop dispenser. The plates were then incubated at room temperature for one hour.
Tetracycline is needed to induce APOL1 expression. 1 mg/mL tet stock in water was diluted to 250 ng/mL (5×) in cell assay media. 60 μL of cell assay media (no tet control) was dispensed in columns 1 and 24, and 60 μL of 5× tet in 384-PP-round bottom plate was dispensed in columns 2 to 23 with the Multidrop dispenser.
Assay ready plates from the Global Compound Archive were ordered using template 384_APOLICell_DR10n2_50 uM_v3. Compounds were dispensed at 200 nL in DMSO. The final top concentration was 10 μM with a 10 point 3-fold dilution in duplicate in the MultiTox assay.
20 μL was transferred from the 5× tet plate to the ARP and mixed, then 5 μL of 5× tet and the compounds were transferred to the cell plate and mixed using the Bravo. The cell plate was placed in the humidified 37° C. 5% CO2 incubator for 24 hours.
The MultiTox-Fluor Multiplex Cytotoxicity Assay was performed in accordance with the manufacturer's protocol. After cells were incubated with tet and compound for 24 hours, 25 μL of 1x MultiTox reagent was added to each well using the Multidrop dispenser; the plates were placed on a plate shaker (600 rpm) for 2 minutes, then centrifuged briefly and placed back in the 37° C. incubator for 30 minutes. […]
As to `C[C@H]1CC2(C[C@@H](c3cn(C)nn3)N1)OC(C(N)=O)c1cc(Cl)ccc12` (single isomer, unassigned) [Compound 40, (2′S,6′S)-6-chloro-2′-methyl-6′-(1-methyltriazol-4-yl)spiro[1H-isobenzofuran-3,4′-piperidine]-1-carboxamide], the IC50 was 50 to 500 nM. The value for `C[C@H]1CC2(C[C@@H](c3cn(C)nn3)N1)OC(C(N)=O)c1ccc(Cl)cc12` (single isomer, unassigned) [Compound 42, (2′S,6′S)-5-chloro-2′-methyl-6′-(1-methyltriazol-4-yl)spiro[1H-isobenzofuran-3,4′-piperidine]-1-carboxamide] was 50 to 500 nM; that for `C[C@H]1C[C@@]2(C[C@@H](c3cn(C)nn3)N1)OCCc1cc(O)c(Cl)cc12` [Compound 1] was greater than 500 nM; that for `C[C@H]1C[C@@]2(C[C@@H](c3cn(C)nn3)N1)OCCc1ccc(Cl)c(O)c12` [Compound 2] was less than 50 nM. In the case of `C[C@H]1C[C@@]2(C[C@@H](c3cnn(CCS(C)(=O)=O)c3)N1)OCCc1cc(O)c(Cl)cc12` [Compound 3], the IC50 was greater than 500 nM. Then `C[C@H]1C[C@@]2(C[C@@H](c3ccn(CCS(C)(=O)=O)c3)N1)OCCc1ccc(Cl)c(O)c12` [Compound 4], with 50 to 500 nM; and `COc1ccc2c(c1)CCO[C@@]21C[C@@H](c2cn(C)nn2)N[C@@H](C)C1` [Compound 5], with less than 50 nM. Take `COc1cccc2c1[C@]1(C[C@@H](c3cn(C)nn3)N[C@@H](C)C1)OCC2` [Compound 6]: the IC50 is greater than 500 nM. The value for `C[C@H]1C[C@@]2(C[C@@H](c3cn(C)nn3)N1)OCCc1cc(O)ccc12` [Compound 7] was 50 to 500 nM; that for `C[C@H]1C[C@@]2(C[C@@H](c3cn(C)nn3)N1)OCCc1cccc(O)c12` [Compound 8] was 50 to 500 nM.

As for `C[C@H]1C[C@@]2(C[C@@H](c3cn(C)nn3)N1)OCCc1cc(Br)ccc12` [Compound 9], the IC50 was less than 50 nM.

`C[C@H]1C[C@@]2(C[C@@H](c3cn(C)nn3)N1)OCCc1ccc(Cl)cc12` [Compound 10]: the IC50 was less than 50 nM. The value for `C[C@H]1C[C@@]2(C[C@@H](c3cn(C)nn3)N1)OCCc1ccc(C#N)cc12` [Compound 11] was 50 to 500 nM. Turning to `C[C@H]1C[C@@]2(C[C@@H](c3cn(C)nn3)N1)OCCc1ccccc12` [Compound 12], the IC50 is less than 50 nM. Then `CCc1ccc2c(c1)[C@]1(C[C@@H](c3cn(C)nn3)N[C@@H](C)C1)OCC2` [Compound 13, (1S,2′S,6′S)-7-ethyl-2′-methyl-6′-(1-methyl-1H-1,2,3-triazol-4-yl)spiro[isochromane-1,4′-piperidine]], with less than 50 nM; and `C[C@H]1C[C@@]2(C[C@@H](c3cn(C)nn3)N1)OCCc1cc(OS(=O)(=O)C(F)(F)F)ccc12` [Compound 14], with 50 to 500 nM. For the compound `C[C@H]1C[C@@]2(C[C@@H](c3cn(C)nn3)N1)OCCc1cc(Cl)ccc12` [Compound 15], the IC50 is less than 50 nM.

For `Cc1ccc2c(c1)CCO[C@@]21C[C@@H](c2cn(C)nn2)N[C@@H](C)C1` [Compound 16], the IC50 is less than 50 nM. The value for `CCc1ccc2c(c1)CCO[C@@]21C[C@@H](c2cn(C)nn2)N[C@@H](C)C1` [Compound 17] was less than 50 nM; that for `CC(C)c1ccc2c(c1)CCO[C@@]21C[C@@H](c2cn(C)nn2)N[C@@H](C)C1` [Compound 18] was less than 50 nM; that for `COC(=O)c1ccc2c(c1)CCO[C@@]21C[C@@H](c2cn(C)nn2)N[C@@H](C)C1` [Compound 19] was greater than 500 nM. The value for `C[C@H]1C[C@@]2(C[C@@H](c3cn(C)nn3)N1)OCCc1cc(C(C)(C)O)ccc12` [Compound 20] was 50 to 500 nM; that for `C[C@H]1C[C@@]2(C[C@@H](c3cn(C)nn3)N1)OCCc1cc(C#N)ccc12` [Compound 21] was 50 to 500 nM; that for `C[C@H]1C[C@@]2(C[C@@H](c3cn(C)nn3)N1)OCCc1cc(CO)ccc12` [Compound 22] was greater than 500 nM. For `C[C@H]1C[C@@]2(C[C@@H](c3cn(C)nn3)N1)OCCc1cc(C(F)(F)F)ccc12` [Compound 23], the IC50 was less than 50 nM. The value for `CC1CC2(CC(c3cnn(CCS(C)(=O)=O)c3)N1)OCCc1ccc(Cl)cc12` (stereo not drawn) [Compound 24] was 50 to 500 nM. Then `C[C@H]1C[C@@]2(C[C@@H](c3cn(C)nn3)N1)OC[C@@H](O)c1cc(Cl)ccc12` [Compound 25], with less than 50 nM; and `C[C@H]1C[C@@]2(C[C@@H](c3cn(C)nn3)N1)OC[C@H](O)c1cc(Cl)ccc12` [Compound 26], with less than 50 nM. For `C[C@H]1C[C@@]2(C[C@@H](c3cn(C)nn3)N1)OC[C@@H](O)c1cc(C(F)(F)F)ccc12` [Compound 27, (1S,2′S,4S,6′S)-2′-methyl-6′-(1-methyl-1H-1,2,3-triazol-4-yl)-6-(trifluoromethyl)spiro[isochromane-1,4′-piperidin]-4-ol], the IC50 is less than 50 nM.

Consider `C[C@H]1C[C@@]2(C[C@@H](c3cn(C)nn3)N1)OC[C@H](O)c1cc(C(F)(F)F)ccc12` [Compound 28, (1S,2′S,4R,6′S)-2′-methyl-6′-(1-methyl-1H-1,2,3-triazol-4-yl)-6-(trifluoromethyl)spiro[isochromane-1,4′-piperidin]-4-ol], for which the IC50 is less than 50 nM.

On to `C[C@H]1C[C@@]2(C[C@@H](c3cn(C)nn3)N1)OCC(O)c1ccc(Cl)cc12` (stereo partly drawn) [Compound 29], for which the IC50 was in the range of 50 to 500 nM. On to `C[C@H]1C[C@@]2(C[C@@H](c3cn(C)nn3)N1)OCC(O)c1ccc(Cl)cc12` (stereo partly drawn) [Compound 30, (1S,2′S,6′S)-7-chloro-2′-methyl-6′-(1-methyl-1H-1,2,3-triazol-4-yl)spiro[isochromane-1,4′-piperidin]-4-ol], for which the IC50 lay within 50 to 500 nM. The value for `C[C@H]1C[C@]2(C[C@@H](c3cn(C)nn3)N1)C(=O)Nc1ccccc12` [Compound 31, (2′S,3R,6′S)-2′-methyl-6′-(1-methyltriazol-4-yl)spiro[indoline-3,4′-piperidine]-2-one] was greater than 500 nM; that for `C[C@H]1C[C@@]2(C[C@@H](c3cn(C)nn3)N1)C(=O)Nc1ccccc12` [Compound 32, (2′S,3S,6′S)-2′-methyl-6′-(1-methyltriazol-4-yl)spiro[indoline-3,4′-piperidine]-2-one] was less than 50 nM; that for `Cc1ccc2c(c1)NC(=O)[C@@]21C[C@@H](c2cn(C)nn2)N[C@@H](C)C1` [Compound 33, (2′S,3S,6′S)-2′,6-dimethyl-6′-(1-methyltriazol-4-yl)spiro[indoline-3,4′-piperidine]-2-one] was less than 50 nM.

With `Cc1ccc2c(c1)[C@]1(C[C@@H](c3cn(C)nn3)N[C@@H](C)C1)C(=O)N2` [Compound 34, (2′S,3S,6′S)-2′,5-dimethyl-6′-(1-methyltriazol-4-yl)spiro[indoline-3,4′-piperidine]-2-one], the IC50 is less than 50 nM.

(Values after patent publication US20250084094A1 (Vertex Pharmaceuticals Incorporated, priority 2021, published 2025).)
